{"source": "patent US5668141A", "about": "“Trans-2,6-,3,6-and 4,6-diaza-5,6,6a,7,8,12b-hexahydrobenzo[c]phenanthrene compounds as dopamine agonists” (Abbott Laboratories, priority 1996, dated 1997)", "key": {"[1]": {"tested_on": "acute renal failure", "conditions": "in combination with diuretics, patients; cited from earlier work"}, "[2]": {"tested_on": "schizophrenia", "conditions": "cited from earlier work; for antipsychotic effect: low doses"}, "[3]": {"tested_on": "neural feeding mechanisms", "conditions": "rats; cited from earlier work"}, "[4]": {"target": "T1, human D1 receptor (Homo sapiens, UniProt P21728)", "T1 construct": "expressed in transfected cells; host or cells: HEK-D1 cells (HEK cells expressing the human D1 clone)", "T1 sequence (P21728 whole entry)": "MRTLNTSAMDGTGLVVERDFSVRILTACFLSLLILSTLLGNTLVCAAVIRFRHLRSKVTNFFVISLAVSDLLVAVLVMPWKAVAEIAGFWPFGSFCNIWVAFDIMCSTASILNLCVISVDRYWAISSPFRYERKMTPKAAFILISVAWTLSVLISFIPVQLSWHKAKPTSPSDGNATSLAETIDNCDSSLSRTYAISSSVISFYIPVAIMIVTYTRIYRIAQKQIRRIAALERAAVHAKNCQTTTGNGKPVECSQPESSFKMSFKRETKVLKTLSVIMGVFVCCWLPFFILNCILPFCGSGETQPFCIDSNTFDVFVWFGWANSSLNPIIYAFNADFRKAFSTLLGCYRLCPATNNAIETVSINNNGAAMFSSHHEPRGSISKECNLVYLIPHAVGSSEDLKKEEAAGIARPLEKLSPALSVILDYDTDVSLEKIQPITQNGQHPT", "test": "Adenylate cyclase activity (cAMP stimulation in HEK-D1 cells)", "type": "cell-based", "conditions": "read-out: IA (relative intrinsic activity to dopamine)", "experimental": "Adenylate cyclase activity: Human D1 receptor.\nThe interaction of dopamine or a dopamine D-1 receptor agonist with the D-1 receptor causes a dose-dependent increase in the adenylate cyclase-catalyzed conversion of adenosine triphosphate (ATP) to cyclic adenosine monophosphate (cAMP). The functional activity of the compounds of the invention was determined by assaying their ability to either stimulate the enzyme adenylate cyclase to produce cAMP (agonist activity). Assays were conducted in 24-well or 48-well tissue culture plates. The assay buffer consisted of DPBS containing CaCl2 and MgCl2, 0.1% glucose, 0.5 mM IBMX, 0.004% ascorbic acid and 10 μM propranolol to inhibit potential cross activation of the endogenous β-receptor. Culture medium was removed, and HEK-D1 cell was washed once with assay buffer, and 400 μl fresh assay buffer was added for 10 min. Next, 100 μl of dopamine or dopamine agonist, dissolved in assay buffer, was added to the cell for an additional 15 min, and incubations were terminated with 500 μL 0.2N HCl. cAMP contents were determined by RIA using the automated Attoflo™ system (Rockville, Md.).\nThe hD1c ED50 level is a measure of the potency, showing the concentration (nM) at which a 50% response is obtained; a lower number indicates a higher potency. High intrinsic activity (IA) indicates the activity of the compound as a dopamine agonist."}, "[5]": {"tested_on": "dopamine receptor", "conditions": "cited from earlier work"}, "[6]": {"tested_on": "striatal dopamine receptors", "test": "Rotation behavior, rat rotational model (6-hydroxydopamine unilateral lesion)", "type": "in vivo", "conditions": "sc, 6-hydroxydopamine-lesioned rats", "procedure": "The behavioral assay used was based on the rat rotational model. Striatal dopamine was depleted by the intracranial injection of 6-hydroxydopamine, a neurotoxin which specifically destroys catecholaminergic neurons. […] This unilateral lesioning of dopamine-containing neurons causes the post-synaptic dopamine receptors to become supersensitive to dopaminergic stimulation in behavioral assays. […] Agonist activity was measured by the ability of the test compound to induce rotation.\nA lower number indicates a higher potency."}, "[7]": {"tested_on": "Parkinson's disease", "conditions": "alone, some early Parkinson's disease patients; cited from earlier work"}}, "note": "Structures can show the parent of a compound that is named as a salt.", "data": [{"smiles": "NCCc1ccc(O)c(O)c1", "note": "[dopamine]", "values": [{"measurement": "effect on acute renal failure", "setting": "[1]", "value": "reverse radio-contrast media-induced acute renal failure"}]}, {"smiles": "Oc1cc2c(cc1O)C(c1ccccc1)CNCC2", "note": "(stereo not shown) [SKF 38393]", "values": [{"measurement": "effect on side-effects of haloperidol", "setting": "[2]; in conjunction with haloperidol", "value": "ameliorate the undesired side-effects of the haloperidol"}, {"measurement": "effect on food intake", "setting": "[3]", "value": "decrease food intake by rats"}]}, {"smiles": "Oc1cc2c(cc1O)[C@@H]1c3cnccc3CN[C@H]1CC2", "note": "(relative stereo) [Example 11, trans-2,6-diaza-5,6,6a,7,8,12b-hexahydrobenzo[c]phenanthrene 10,11-diol dihydrobromide]", "values": [{"measurement": "Emax", "setting": "[4]", "value": 81, "unit": "%"}]}, {"smiles": "Oc1cc2c(cc1O)[C@@H]1c3ccncc3CN[C@H]1CC2", "note": "(relative stereo) [Example 13, trans-3,6-diaza-5,6,6a,7,8,12b-hexahydrobenzo[c]phenanthrene 10,11-diol dihydrobromide]", "values": [{"measurement": "Emax", "setting": "[4]", "value": 131, "unit": "%"}]}, {"smiles": "CN1CCc2cccc3c2[C@H]1Cc1ccc(O)c(O)c1-3", "note": "[apomorphine]", "values": [{"measurement": "antipsychotic effect", "setting": "[2]", "value": "produce antipsychotic effects"}]}, {"smiles": "Oc1cc2c(cc1O)[C@H]1c3ccccc3CN[C@@H]1CC2", "note": "(racemic) [dihydrexidine]", "values": [{"measurement": "dopamine agonist activity", "setting": "[5]", "value": "active as a dopamine agonist"}]}, {"smiles": "Cc1ccc2c(n1)CN[C@H]1CCc3cc(O)c(O)cc3[C@H]21", "note": "(relative stereo) [Example 2, trans-4,6-diaza-5,6,6a,7,8,12b-hexahydro-3-methylbenzo[c]phenanthrene 10,11-diol dihydrobromide]", "values": [{"measurement": "Emax", "setting": "[4]", "value": 121, "unit": "%"}]}, {"smiles": "CCCc1ccc2c(n1)CN[C@H]1CCc3cc(O)c(O)cc3[C@H]21", "note": "(relative stereo) [Example 3, trans-4,6-diaza-5,6,6a,7,8,12b-hexahydro-3-propylbenzo[c]phenanthrene 10,11-diol dihydrobromide]", "values": [{"measurement": "Emax", "setting": "[4]", "value": 116, "unit": "%"}, {"measurement": "Rotation behavior EC50", "setting": "[6]", "value": 0.14, "unit": "µmol/kg"}]}, {"smiles": "Oc1cc2c(cc1O)[C@@H]1c3cccnc3CN[C@H]1CC2", "note": "(relative stereo) [Example 1, trans-4,6-diaza-5,6,6a,7,8,12b-hexahydrobenzo[c]phenanthrene 10,11-diol dihydrobromide]", "values": [{"measurement": "Emax", "setting": "[4]", "value": 125, "unit": "%"}]}, {"smiles": "Oc1cc2c(cc1O)[C@@H]1c3cc4c(nc3CN[C@H]1CC2)CCCC4", "note": "(relative stereo) [Example 10, trans-4,6-diaza-5,6,6a,7,8,12b-hexahydro-2,3-cyclohexenobenzo[c]phenanthrene 10,11-diol dihydrobromide]", "values": [{"measurement": "Emax", "setting": "[4]", "value": 136, "unit": "%"}]}, {"smiles": "COc1ccc2c(n1)CN[C@H]1CCc3cc(O)c(O)cc3[C@H]21", "note": "(relative stereo) [Example 4, trans-4,6-diaza-5,6,6a,7,8,12b-hexahydro-3-methoxybenzo[c]phenanthrene 10,11-diol dihydrobromide]", "values": [{"measurement": "Emax", "setting": "[4]", "value": 114, "unit": "%"}]}, {"smiles": "Cc1cc2c(nc1C)CN[C@H]1CCc3cc(O)c(O)cc3[C@H]21", "note": "(relative stereo) [Example 9, trans-4,6 diaza-5,6,6a,7,8,12b-hexahdro-2,3-dimethylbenzo[c]phenanthrene 10,11-diol dihydrobromide]", "values": [{"measurement": "Emax", "setting": "[4]", "value": 134, "unit": "%"}]}, {"smiles": "Cc1cnc2c(c1)[C@H]1c3cc(O)c(O)cc3CC[C@@H]1NC2", "note": "(relative stereo) [Example 7, trans-4,6-diaza-5,6,6a,7,8,12b-hexahydro-2-methylbenzo[c]phenanthrene 10,11-diol dihydrobromide]", "values": [{"measurement": "Emax", "setting": "[4]", "value": 156, "unit": "%"}]}, {"smiles": "Oc1cc2c(cc1O)[C@@H]1c3ccc(F)nc3CN[C@H]1CC2", "note": "(relative stereo) [Example 5, trans-4,6-diaza-3-fluoro-5,6,6a,7,8,12 b-hexahydrobenzo[c]phenanthrene 10,11-diol dihydrobromide]", "values": [{"measurement": "Emax", "setting": "[4]", "value": 141, "unit": "%"}, {"measurement": "Rotation behavior EC50", "setting": "[6]", "value": 0.82, "unit": "µmol/kg"}]}, {"smiles": "CC(C)C[C@H]1C(=O)N2CCC[C@H]2[C@]2(O)O[C@](NC(=O)[C@@H]3C=C4c5cccc6[nH]c(Br)c(c56)C[C@H]4N(C)C3)(C(C)C)C(=O)N12", "note": "[Bromocriptine]", "values": [{"measurement": "effect on Parkinson's disease symptoms", "setting": "[7]", "value": "relieve Parkinson's disease symptoms in some early Parkinson's disease patients"}, {"measurement": "antipsychotic effect", "setting": "[2]", "value": "produce antipsychotic effects"}]}, {"smiles": "Cc1cncc2c1CN[C@H]1CCc3cc(O)c(O)cc3[C@H]21", "note": "(relative stereo) [Example 14, trans-2,6-diaza-4-methyl-5,6,6a,7,8,12b-hexahydrobenzo[c]phenanthrene 10,11-diol dihydrobromide]", "values": [{"measurement": "Emax", "setting": "[4]", "value": 75, "unit": "%"}]}, {"smiles": "CCCCc1cnc2c(c1)[C@H]1c3cc(O)c(O)cc3CC[C@@H]1NC2", "note": "(relative stereo) [Example 8, trans-4,6-diaza-5,6,6a,7,8,12b-hexahydro-2-butylbenzo[c]phenanthrene 10,11-diol dihydrobromide]", "values": [{"measurement": "Emax", "setting": "[4]", "value": 118, "unit": "%"}]}, {"smiles": "Oc1cc2c(cc1O)[C@@H]1c3cncc(F)c3CN[C@H]1CC2", "note": "(relative stereo) [Example 12, trans-2,6-diaza-4-fluoro-5,6,6a,7,8,12b-hexahydrobenzo[c]phenanthrene 10,11-diol dihydrobromide]", "values": [{"measurement": "Emax", "setting": "[4]", "value": 126, "unit": "%"}]}]}
